# Data reported in paper PMC8379219 (Nature Communications, 2021).
# “And” between values parts separate entries of the source, which are not always exact repeats. Equal entries are not always repeated. “Also recorded” adds a separate entry of the source. Where two headings read alike, the source gives them in different places.
# Key:
# SERT WT [1] = molecular target: T1, SERT WT (Homo sapiens, UniProt P31645); conditions: Log[VLZ] (M) -4; ctrl = 1; replicates
# SERT WT [2] = molecular target: T1, SERT WT
# SERT WT [3] = molecular target: T1, SERT WT; experiment: [3H]5-HT saturation uptake with increasing VLZ concentrations, COS-7 cells;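 as to all read-outs here: transfected cells assayed 2 days post-transfection, 3 min uptake period, accumulated radioactivity counted in cell lysates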; assay type: cell-based; design: expressed in transfected cells; host or cells: COS-7; [3H]5-HT uptake (Fig. 2A [3H]5-HT Vmax):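 percent of the 5-HT Vmax measured without VLZ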; conditions: for [3H]5-HT uptake (Fig. 2A [3H]5-HT Vmax): replicates
# SERT S438T = SERT S438T (Homo sapiens, UniProt P31645, S438T)
# SERT [4] = molecular target: T2, SERT (Homo sapiens, UniProt P31645); experiment: [3H]IMI dissociation from SERT by VLZ in absence or presence of 10 µM Fab fragment; assay type: binding; conditions: for Fab fragment VLZ allostery w [3H]IMI Dissoc (Suppl. Fig 3A): ctrl = 1
# T2 construct: expressed in transfected cells; host or cells: membranes of COS-7 cells, transient transfection
# SERT [5] = molecular target: T2, SERT; experiment: [3H]S-CIT dissociation from SERT by VLZ in absence or presence of 10 µM Fab fragment; assay type: binding; conditions: for Fab fragment VLZ allostery w [3H]S-CIT Dissoc (Suppl. Fig 3B): SERT WT, ctrl 0.9997
# T1 sequence (P31645 whole entry): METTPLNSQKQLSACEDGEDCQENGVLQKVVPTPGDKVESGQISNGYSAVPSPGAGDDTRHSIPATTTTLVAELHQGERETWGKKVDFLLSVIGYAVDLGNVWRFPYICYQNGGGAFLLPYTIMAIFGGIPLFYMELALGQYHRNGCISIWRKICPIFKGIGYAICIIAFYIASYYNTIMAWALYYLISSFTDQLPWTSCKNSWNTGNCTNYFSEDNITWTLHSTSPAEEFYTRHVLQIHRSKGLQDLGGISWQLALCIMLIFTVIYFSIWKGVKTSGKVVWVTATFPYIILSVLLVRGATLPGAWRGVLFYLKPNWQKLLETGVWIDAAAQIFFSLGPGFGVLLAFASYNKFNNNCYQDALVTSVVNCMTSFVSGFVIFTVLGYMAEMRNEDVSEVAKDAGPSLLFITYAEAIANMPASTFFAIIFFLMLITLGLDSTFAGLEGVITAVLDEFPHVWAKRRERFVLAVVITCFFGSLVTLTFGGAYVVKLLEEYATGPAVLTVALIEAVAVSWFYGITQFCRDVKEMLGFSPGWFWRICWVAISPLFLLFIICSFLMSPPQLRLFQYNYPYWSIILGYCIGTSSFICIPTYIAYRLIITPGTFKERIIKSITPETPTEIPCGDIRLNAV
# T2 sequence (P31645 whole entry, the tested form may be a part): as the sequence (P31645 whole entry) above
# SERT S438T, sequence (P31645 whole entry S438T, the tested form may be a part): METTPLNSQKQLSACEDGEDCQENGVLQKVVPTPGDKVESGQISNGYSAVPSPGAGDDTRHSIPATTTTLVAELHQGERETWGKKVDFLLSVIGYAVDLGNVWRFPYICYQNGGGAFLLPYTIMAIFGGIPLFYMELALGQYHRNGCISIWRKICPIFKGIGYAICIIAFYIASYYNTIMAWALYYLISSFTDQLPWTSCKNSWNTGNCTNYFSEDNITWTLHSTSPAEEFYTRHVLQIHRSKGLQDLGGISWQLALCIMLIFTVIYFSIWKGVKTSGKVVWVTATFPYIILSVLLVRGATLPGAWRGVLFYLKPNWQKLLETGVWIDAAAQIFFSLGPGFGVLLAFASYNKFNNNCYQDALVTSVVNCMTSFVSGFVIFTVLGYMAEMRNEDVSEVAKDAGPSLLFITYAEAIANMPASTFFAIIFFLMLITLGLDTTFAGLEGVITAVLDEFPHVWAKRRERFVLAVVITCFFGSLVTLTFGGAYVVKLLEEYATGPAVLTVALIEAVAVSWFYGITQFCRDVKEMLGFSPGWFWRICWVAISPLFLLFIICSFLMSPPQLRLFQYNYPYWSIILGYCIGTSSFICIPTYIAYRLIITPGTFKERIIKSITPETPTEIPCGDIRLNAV
smiles,measurement,setting,value
"N#Cc1ccc2[nH]cc(CCCCN3CCN(c4ccc5oc(C(N)=O)cc5c4)CC3)c2c1 [VLZ, Vilazodone]","VLZ Allosteric Potency SERT WT, [3H]S-CIT dissociation (Fig. 2C)",SERT WT [1],0
same,[3H]S-CIT binding inhibition,SERT WT [2]; Log[VLZ] (M) -6,6.1374 and 6.267 and 9.306 and 7.924
same,[3H]S-CIT binding inhibition,SERT WT [2]; Log[VLZ] (M) -7,15.0029 and 12.5666 and 12.6935 and 13.2177 and 16.0372 and 22.3569
same,[3H]S-CIT binding inhibition,SERT WT [2]; Log[VLZ] (M) -8,20.242 and 17.0122 and 17.5714 and 27.4498 and 22.8662
same,[3H]S-CIT binding inhibition,SERT WT [2]; Log[VLZ] (M) -9.5,93.155 and 87.0219 and 91.9361 and 94.5429
same,[3H]S-CIT binding inhibition,SERT WT [2]; Log[VLZ] (M) -10,90.7785 and 92.3382 and 88.1671 and 94.4965
same,[3H]S-CIT binding inhibition,SERT WT [2]; Log[VLZ] (M) -11,106.327 and 106.337 and 110.336 and 113.218 and 118.473 and 111.36
same,[3H]S-CIT binding inhibition,SERT WT [2]; Log[VLZ] (M) -12,92.524 and 93.4609 and 92.9453 and 86.9585 and 90.0353
same,[3H]5-HT uptake (Fig. 2A [3H]5-HT Vmax),"SERT WT [3]; 1.0 nM VLZ, 5-HT 1000 nM",49.0825 and 65.883 and 64.0163
same,[3H]5-HT uptake (Fig. 2A [3H]5-HT Vmax),"SERT WT [3]; 1.0 nM VLZ, 5-HT 2000 nM",61.0408 and 86.9627 and 62.7549
same,[3H]5-HT uptake (Fig. 2A [3H]5-HT Vmax),"SERT WT [3]; 1.0 nM VLZ, 5-HT 3000 nM",66.441 and 97.8152 and 78.0502
same,[3H]5-HT uptake (Fig. 2A [3H]5-HT Vmax),"SERT WT [3]; 3.0 nM VLZ, 5-HT 1000 nM",33.7847 and 41.1475 and 28.2118 and 48.6535
same,[3H]5-HT uptake (Fig. 2A [3H]5-HT Vmax),"SERT WT [3]; 3.0 nM VLZ, 5-HT 2000 nM",43.7743 and 51.4964 and 36.278 and 58.2653
same,[3H]5-HT uptake (Fig. 2A [3H]5-HT Vmax),"SERT WT [3]; 3.0 nM VLZ, 5-HT 3000 nM",47.6029 and 61.8621 and 42.6502 and 66.7813
same,[3H]5-HT uptake (Fig. 2A [3H]5-HT Vmax),"SERT WT [3]; 3.8 nM VLZ, 5-HT 1000 nM",22.8758 and 41.0675 and 31.8704 and 40.9164 and 22.5758 and 39.1234
same,[3H]5-HT uptake (Fig. 2A [3H]5-HT Vmax),"SERT WT [3]; 3.8 nM VLZ, 5-HT 2000 nM",38.6315 and 55.6912 and 34.4535 and 55.6242 and 30.4203 and 47.6358
same,[3H]5-HT uptake (Fig. 2A [3H]5-HT Vmax),"SERT WT [3]; 3.8 nM VLZ, 5-HT 3000 nM",63.6765 and 45.9269 and 61.6646 and 33.1434 and 58.1985
same,[3H]5-HT uptake (Fig. 2A [3H]5-HT Vmax),"SERT WT [3]; 6.0 nM VLZ, 5-HT 1000 nM",12.5099 and 7.037 and 21.7589
same,[3H]5-HT uptake (Fig. 2A [3H]5-HT Vmax),"SERT WT [3]; 6.0 nM VLZ, 5-HT 2000 nM",13.9352 and 18.4437
same,[3H]5-HT uptake (Fig. 2A [3H]5-HT Vmax),"SERT WT [3]; 6.0 nM VLZ, 5-HT 3000 nM",16.6938 and 13.3777
same,[3H]5-HT uptake (Fig. 2A [3H]5-HT Vmax),"SERT WT [3]; 7.5 nM VLZ, 5-HT 1000 nM",14.9918 and 20.7791 and 1.755 and 5.881 and 9.304
same,[3H]5-HT uptake (Fig. 2A [3H]5-HT Vmax),"SERT WT [3]; 7.5 nM VLZ, 5-HT 2000 nM",20.8007 and 29.8638 and 2.631 and 9.704
same,[3H]5-HT uptake (Fig. 2A [3H]5-HT Vmax),"SERT WT [3]; 7.5 nM VLZ, 5-HT 3000 nM",31.591 and 10.2272 and 13.2803
same,[3H]5-HT uptake (Fig. 2A [3H]5-HT Vmax),"SERT WT [3]; 10 nM VLZ, 5-HT 1000 nM",11.1656 and 2.348 and 1.555 and 4.995
same,[3H]5-HT uptake (Fig. 2A [3H]5-HT Vmax),"SERT WT [3]; 10 nM VLZ, 5-HT 2000 nM",17.8898 and 3.041 and 8.84 and 7.029 and 9.965
same,[3H]5-HT uptake (Fig. 2A [3H]5-HT Vmax),"SERT WT [3]; 10 nM VLZ, 5-HT 3000 nM",19.1566 and 3.978 and 3.024
same,[3H]5-HT uptake (Fig. 2A [3H]5-HT Vmax),"SERT WT [3]; 15 nM VLZ, 5-HT 1000 nM",1.871 and 1.697 and 1.083 and 0.6379 and 0.8401 and 1.916
same,[3H]5-HT uptake (Fig. 2A [3H]5-HT Vmax),"SERT WT [3]; 15 nM VLZ, 5-HT 2000 nM",3.689 and 3.04 and 2.083 and 1.212 and 1.597 and 2.763
same,Mode of inhibition of [3H]5-HT transport,SERT WT [3]; VLZ 0–15 nM,non-competitive
same,5-HT VMAX (in % of no VLZ),SERT WT [3]; VLZ 1 nM,93 ± 13%
same,5-HT VMAX (in % of no VLZ),SERT WT [3]; VLZ 3.0 nM,66 ± 10%
same,5-HT VMAX (in % of no VLZ),SERT WT [3]; VLZ 3.8 nM,72 ± 17%
same,5-HT VMAX (in % of no VLZ),SERT WT [3]; VLZ 6.0 nM,21 ± 6%
same,5-HT VMAX (in % of no VLZ),SERT WT [3]; VLZ 7.5 nM,18 ± 8%
same,5-HT VMAX (in % of no VLZ),SERT WT [3]; VLZ 10 nM,11 ± 5%
same,5-HT VMAX (in % of no VLZ),SERT WT [3]; VLZ 15 nM,3.4 ± 1.2%
same,5-HT VMAX (in % of no VLZ),SERT WT [3]; VLZ […],98 ± 10%
same,[3H]5-HT uptake inhibition S1 Mutants,SERT S438T; Log[VLZ] (M) -8,14.775 and 11.8665 and 12.0164 and 12.3243
same,[3H]5-HT uptake inhibition S1 Mutants,SERT S438T; Log[VLZ] (M) -8.5,41.3444 and 41.8738 and 54.9583 and 30.416
same,[3H]5-HT uptake inhibition S1 Mutants,SERT S438T; Log[VLZ] (M) -9,69.6167 and 63.3209 and 84.8416 and 54.068
same,[3H]5-HT uptake inhibition S1 Mutants,SERT S438T; Log[VLZ] (M) -9.5,80.1053
same,[3H]5-HT uptake inhibition S1 Mutants,SERT S438T; Log[VLZ] (M) -10,87.6994 and 103.115 and 83.4593
same,[3H]5-HT uptake inhibition S1 Mutants,SERT S438T; Log[VLZ] (M) -10.5,92.1556 and 93.2014 and 102.815 and 97.2843
same,[3H]5-HT uptake inhibition S1 Mutants,SERT S438T; Log[VLZ] (M) -11,102.782 and 106.151 and 94.1598
same,[3H]5-HT uptake inhibition S1 Mutants,SERT S438T; Log[VLZ] (M) -12,100.15 and 89.7676 and 98.9977
same,Effect of Fab fragment on allosteric potency of VLZ ([3H]IMI dissociation),"SERT [4]; 10 µM Fab, n = 1",no apparent effect; also recorded: unaffected
same,Fab fragment VLZ allostery w [3H]IMI Dissoc (Suppl. Fig 3A),"SERT [4]; SERT WT, Log[VLZ] (M) -6",0
same,Fab fragment VLZ allostery w [3H]IMI Dissoc (Suppl. Fig 3A),"SERT [4]; SERT WT, Log[VLZ] (M) -7.34",0.0851
same,Fab fragment VLZ allostery w [3H]IMI Dissoc (Suppl. Fig 3A),"SERT [4]; SERT WT, Log[VLZ] (M) -7.817",0.2902
same,Fab fragment VLZ allostery w [3H]IMI Dissoc (Suppl. Fig 3A),"SERT [4]; SERT WT, Log[VLZ] (M) -8.294",0.4378
same,Fab fragment VLZ allostery w [3H]IMI Dissoc (Suppl. Fig 3A),"SERT [4]; w. Fab fragment, Log[VLZ] (M) -6",0
same,Fab fragment VLZ allostery w [3H]IMI Dissoc (Suppl. Fig 3A),"SERT [4]; w. Fab fragment, Log[VLZ] (M) -7.34",0.077
same,Fab fragment VLZ allostery w [3H]IMI Dissoc (Suppl. Fig 3A),"SERT [4]; w. Fab fragment, Log[VLZ] (M) -7.817",0.2744
same,Fab fragment VLZ allostery w [3H]IMI Dissoc (Suppl. Fig 3A),"SERT [4]; w. Fab fragment, Log[VLZ] (M) -8.294",0.5049
same,Effect of Fab fragment on allosteric potency of VLZ ([3H]S-CIT dissociation),"SERT [5]; 10 µM Fab, n = 1",no apparent effect; also recorded: unaffected
same,Fab fragment VLZ allostery w [3H]S-CIT Dissoc (Suppl. Fig 3B),SERT [5]; Log[VLZ] (M) -4,0
same,Fab fragment VLZ allostery w [3H]S-CIT Dissoc (Suppl. Fig 3B),SERT [5]; Log[VLZ] (M) -6.046,0.25
same,Fab fragment VLZ allostery w [3H]S-CIT Dissoc (Suppl. Fig 3B),SERT [5]; Log[VLZ] (M) -6.523,0.5086
same,Fab fragment VLZ allostery w [3H]S-CIT Dissoc (Suppl. Fig 3B),SERT [5]; Log[VLZ] (M) -7,0.7481
